Protocol: To ensure that the introduction of the hydrophobic compounds into the template structure would not lead to rearrangement of the particles in the 3D array, some of the templates were sintered prior to the introduction step. Sintering temperatures between 700 and 1200° C. were used to evaluate the conditions needed to form strong interparticle necks without distorting the initial packed structure. Sintering was accomplished under a O2 gas flow of 0.7 L/min (Thermo Scientific Lindberg Blue M Three-Zone Tube Furnace, Cole-Parmer, Vernon Hills, Ill., USA) applying a dwell time period of 2 hours. Introduction of the hydrophobic compounds into the interstices of the packed array of particles was accomplished by first placing the template on a hot plate at a predetermined temperature and afterwards depositing the powdery hydrophobic compound on the top of the heated template. The temperature of the hot plate was adjusted to enable melting of the hydrophobic compound on the template surface. Once in liquid form, the compound was sucked into the interstices of the template structure by capillary forces. […] After fluid introduction, the templates were removed from the hot plate and cooled in air at ambient temperature. The fluid-introduced templates were finally fractured to enable evaluation of the fluid-introduction efficiency in an electron microscope.
Drug-template composites were prepared in the following manner. Templates were prepared from an aqueous colloidal dispersion using the slip-casting method described previously. After slip-casting, the templates were dried in an oven at 110° C. for 12 hours. The templates were then placed on a hotplate at a temperature approximately 5° C. to 10° C. above the melting point of the drug. A small amount of the raw crystalline drug was placed on the surface of the hot template. As the drug was melted, it was drawn into the template by capillary action. These steps were repeated until the template was filled completely. […] The drug-template composites were prepared for dissolution by mild grinding of the sample with a hand-held mortar and pestle.
The samples were prepared for NMR by the following procedure. Unprocessed, crystalline powders (BASF) were dissolved in deuterated solvents at a concentration of approximately 10 mg/mL and filtered through a 0.2 micrometer PTFE filter to remove any solid impurities before running NMR measurements. Drug-silica composites were ground using a hand-held mortar and pestle, dissolved in deuterated solvents at a (drug) concentration of approximately 10 mg/mL and filtered through a 0.2 micrometer PTFE filter to remove the silica template and any additional solid impurities before running NMR measurements. […] Estradiol was dissolved in deuterated DMSO. […] It is, therefore, to be understood that the foregoing embodiments are presented by way of example only and that, within the scope of the appended claims and equivalents thereto, the invention may be practiced otherwise than as specifically described and claimed. The present invention is directed to each individual feature, system, article, material, kit, and/or method described herein. In addition, any combination of two or more such features, systems, articles, materials, kits, and/or methods, if such features, systems, articles, materials, kits, and/or methods are not mutually inconsistent, is included within the scope of the present invention.

SMILES | stability upon melting | visible color change upon melting and infiltration into the composites | melting without decomposition (introduction of molten compound into templates)
Clc1ccccc1C(c1ccccc1)(c1ccccc1)n1ccnc1 [chlotrimazole] | stable upon melting | no visible color change | –
C(=C\c1ccccc1)/CN1CCN(C(c2ccccc2)c2ccccc2)CC1 [cinnarizine] | stable upon melting | – | can be melted without decomposition
CC(C)OC(=O)C(C)(C)Oc1ccc(C(=O)c2ccc(Cl)cc2)cc1 [fenofibrate] | – | – | can be melted without decomposition
C[C@]12CC[C@@H]3c4ccc(O)cc4CC[C@H]3[C@@H]1CC[C@@H]2O [estradiol] | stable upon melting | no visible color change | –
CC(=O)N1CCN(c2ccc(OCC3COC(Cn4ccnc4)(c4ccc(Cl)cc4Cl)O3)cc2)CC1 (centres unmarked) [ketoconazole] | stable upon melting | no visible color change | –
CCC(C)n1ncn(-c2ccc(N3CCN(c4ccc(OCC5COC(Cn6cncn6)(c6ccc(Cl)cc6Cl)O5)cc4)CC3)cc2)c1=O (centres unmarked) [itraconazole] | stable upon melting | no visible color change | –

From patent publication US20120107601A1, “SYSTEMS AND METHODS OF TEMPLATING USING PARTICLES SUCH AS COLLOIDAL PARTICLES” (President and Fellows of Harvard College, priority 2009, published 2012)
